Test results reported in PubChem BioAssay AID316 (DTP/NCI, 2004).
“And” between values parts separate entries of the source, which are not always exact repeats. Equal entries are not always repeated. Inconclusive results and toxic doses are left out.

Tested on: P1534 leukemia ip, CD2F1 mice, survival T/C
Experiment: NCI In Vivo Anticancer Drug Screen. Data for tumor model P1534 Leukemia (intraperitoneal) in CD2F1 (CDF1) mice
Settings: endpoint: mean survival time, schedule: Q01DX010 (ip), higher = longer survival
Description: The antitumor activity of compounds was measured in mice bearing transplantable tumors. Survival or tumor size were measured and the results are expressed as the measurement made in the treated group (T) divided by the measurement made in the vehicle treated control group (C). The tumor model used in this assay is P1534 Leukemia (intraperitoneal) in CD2F1 (CDF1) mice

[1] = dose: 37.5 mg/kg/injection, vehicle: saline
[2] = dose: 75.0 mg/kg/injection, vehicle: saline
[3] = dose: 25.0 mg/kg/injection, vehicle: saline
[4] = dose: 50.0 mg/kg/injection, vehicle: saline
[5] = dose: 100.0 mg/kg/injection, vehicle: saline
[6] = dose: 200.0 mg/kg/injection, vehicle: saline
[7] = dose: 400.0 mg/kg/injection, vehicle: saline
[8] = dose: 20.0 mg/kg/injection, vehicle: saline
[9] = dose: 40.0 mg/kg/injection, vehicle: saline
[10] = dose: 1.25 mg/kg/injection, vehicle: saline
[11] = dose: 2.5 mg/kg/injection, vehicle: saline
[12] = dose: 10.0 mg/kg/injection, vehicle: saline
[13] = dose: 31.3 mg/kg/injection, vehicle: saline
[14] = dose: 62.5 mg/kg/injection, vehicle: saline
[15] = dose: 5.0 mg/kg/injection, vehicle: saline
[16] = dose: 8.0 mg/kg/injection, vehicle: saline

Which results are given for CC(O)CCc1ccc(O)cc1 (centres undefined)?
T/C (dose: 18.8 mg/kg/injection, vehicle: saline): 100 % of control; T/C [1]: 92 % of control; T/C [2]: 92 % of control; T/C (dose: 150.0 mg/kg/injection, vehicle: saline): 100 % of control

Which T/C (dose: 118.0 mg/kg/injection, vehicle: saline) does the source give for NC(Cn1ccc(=O)c(O)c1)C(=O)O (centres undefined) here?
Its T/C is 92 % of control.

What about the T/C (dose: 178.0 mg/kg/injection, vehicle: saline) of the same compound?
The T/C was 92 % of control.

What about the T/C (dose: 267.0 mg/kg/injection, vehicle: saline) of the same compound?
Its T/C is 92 % of control.

What does the source list for CS(=O)(=O)OCCC(=O)N1CCN(C(=O)CCOS(C)(=O)=O)CC1?
T/C [3]: 160 % of control; T/C [4]: 150 % of control; T/C [5]: 270 % of control

Which T/C [4] does the source give for O=C1C(=O)N(CN2CCOCC2)c2ccccc21 here?
The T/C was 100 % of control.

What about the T/C [5] of the same compound?
The T/C was 100 % of control.

And the T/C [6]?
The T/C was 96 % of control.

And the T/C [7]?
Its T/C is 103 % of control.

Which results are given for CNC(C)C(O)c1ccccc1 (centres undefined)?
T/C [1]: 96 % of control; T/C [2]: 92 % of control

What does the source list for CN1CCN(CCCN2c3ccccc3Sc3ccc(C(F)(F)F)cc32)CC1?
T/C [8]: 107 % of control; T/C [9]: 115 % of control

For Cc1cc(N(CCCl)CCCl)ccc1C=Nc1ccccc1-c1ccccc1, which T/C [3] is on record?
Its T/C is 100 % of control.

And the T/C [4]?
Its T/C is 100 % of control.

And the T/C [5]?
The T/C was 100 % of control.

What does the source list for COc1cc2c(c3c1c(=O)c1ccccc1n3C)C=CC(C)(C)O2?
T/C (dose: 6.25 mg/kg/injection, vehicle: other): 108 % of control; T/C (dose: 12.5 mg/kg/injection, vehicle: other): 108 % of control; T/C (dose: 25.0 mg/kg/injection, vehicle: other): 116 % of control; T/C (dose: 50.0 mg/kg/injection, vehicle: other): 91 % of control; T/C (dose: 100.0 mg/kg/injection, vehicle: other): 116 % of control

Which T/C [3] does the source give for CN1C2CCC1CC(OC(=O)C(CO)c1ccccc1)C2 (centres undefined) here?
Its T/C is 96 % of control.

What about the T/C [4] of the same compound?
Its T/C is 100 % of control.

How did the T/C [5] turn out when O=c1cnn(C2OC(CO)C(O)C2O)c(=O)[nH]1 (centres undefined) was run?
Its T/C is 105 % of control and 107 % of control.

And the T/C [6]?
The T/C was 105 % of control and 120 % of control.

And the T/C (dose: 300.0 mg/kg/injection, vehicle: saline)?
The T/C was 90 % of control and 94 % of control.

What about the T/C [7] of the same compound?
Its T/C is 103 % of control and 110 % of control.

And the T/C (dose: 700.0 mg/kg/injection, vehicle: saline)?
The T/C was 86 % of control and 89 % of control.

What about the T/C (dose: 800.0 mg/kg/injection, vehicle: saline) of the same compound?
Its T/C is 93 % of control and 101 % of control.

And the T/C (dose: 1600.0 mg/kg/injection, vehicle: saline)?
The T/C was 88 % of control.

What does the source list for Nc1nc(=S)c2ncn(C3OC(CO)C(O)C3O)c2[nH]1 (centres undefined)?
T/C (dose: 0.31 mg/kg/injection, vehicle: saline): 103 % of control; T/C (dose: 0.63 mg/kg/injection, vehicle: saline): 103 % of control; T/C [10]: 106 % of control

With O=C(NCCCC(NC(=O)OCc1ccccc1)C(=O)NCCCNCCCCNCCCNC(=O)C(CCCNC(=O)OCc1ccccc1)NC(=O)OCc1ccccc1)OCc1ccccc1 (centres undefined) as the compound, how does the T/C [11] read?
Its T/C is 100 % of control.

What about the T/C [12] of the same compound?
Its T/C is 100 % of control.

Which T/C (dose: 15.6 mg/kg/injection, vehicle: saline) does the source give for NCCc1ccccc1 here?
The T/C was 96 % of control.

What about the T/C [13] of the same compound?
The T/C was 92 % of control.

And the T/C [14]?
Its T/C is 100 % of control.

What does the source list for COc1ccc2c(c1O)-c1c(OC)c(OC)cc3c1[C@H](C2)[N+](C)(C)CC3?
T/C [10]: 96 % of control; T/C [11]: 103 % of control; T/C [15]: 103 % of control; T/C [12]: 100 % of control

Which T/C (dose: 12.5 mg/kg/injection, vehicle: saline) does the source give for C1CCNCC1 here?
Its T/C is 96 % of control.

And the T/C [3]?
The T/C was 100 % of control.

And the T/C [4]?
The T/C was 100 % of control.

And the T/C [5]?
Its T/C is 96 % of control.

What does the source list for Cc1ccccn1?
T/C [14]: 96 % of control; T/C (dose: 125.0 mg/kg/injection, vehicle: saline): 100 % of control; T/C (dose: 250.0 mg/kg/injection, vehicle: saline): 96 % of control

What does the source list for NCC(=O)NCCCCCCNCCCCCCNC(=O)CN?
T/C [4]: 100 % of control; T/C [5]: 100 % of control; T/C [6]: 100 % of control; T/C [7]: 100 % of control

Which results are given for CCCCNc1ncnc2c1cnn2C?
T/C [13]: 100 % of control; T/C [14]: 88 % of control and 100 % of control

For CCCCOP(=S)(N1CC1)N1CC1, which T/C (dose: 4.0 mg/kg/injection, vehicle: saline) is on record?
Its T/C is 115 % of control.

And the T/C [16]?
Its T/C is 123 % of control.

For COc1cc(C(=O)CC2CCCCN2)ccc1O (centres undefined), which T/C [12] is on record?
Its T/C is 100 % of control.

What about the T/C [8] of the same compound?
Its T/C is 96 % of control.

What about the T/C [9] of the same compound?
Its T/C is 96 % of control.

What about the T/C (dose: 80.0 mg/kg/injection, vehicle: saline) of the same compound?
Its T/C is 93 % of control.

Which T/C [4] does the source give for CC(CCc1ccc(OC(=O)c2ccccc2)cc1)OC(=O)c1ccccc1 (centres undefined) here?
Its T/C is 96 % of control.

What about the T/C [5] of the same compound?
Its T/C is 89 % of control.

What about the T/C [6] of the same compound?
Its T/C is 86 % of control.

And the T/C [7]?
Its T/C is 89 % of control.

CNCC(O)(C(=O)O)C(=O)O was tested. Which T/C [4] did it give?
The T/C was 103 % of control.

And the T/C [5]?
The T/C was 96 % of control.

How did the T/C [16] turn out when O=C(Nc1ccc(C2=NCCN2)cc1)c1cccc(C(=O)Nc2ccc(C3=NCCN3)cc2)c1 was run?
Its T/C is 109 % of control.

And the T/C (dose: 16.0 mg/kg/injection, vehicle: saline)?
The T/C was 118 % of control.

What about the T/C (dose: 32.0 mg/kg/injection, vehicle: saline) of the same compound?
The T/C was 154 % of control.

What about the T/C (dose: 64.0 mg/kg/injection, vehicle: saline) of the same compound?
The T/C was 163 % of control and 168 % of control.

With CCC(C)n1ncc2c(N(C)C)ncnc21 (centres undefined) as the compound, how does the T/C (dose: 16.25 mg/kg/injection, vehicle: saline) read?
Its T/C is 107 % of control.

What about the T/C (dose: 32.5 mg/kg/injection, vehicle: saline) of the same compound?
The T/C was 111 % of control.

And the T/C (dose: 65.0 mg/kg/injection, vehicle: saline)?
The T/C was 96 % of control.

COc1cc(C[C@H]2c3cc(OC)c(OC)cc3CCN2C)c(Oc2cc3c(cc2OC)-c2c(OC)c(OC)cc4c2[C@H](C3)N(C)CC4)cc1OC was tested. Which T/C [3] did it give?
Its T/C is 92 % of control.

And the T/C [4]?
The T/C was 92 % of control.

For CC(/C=N/N=C(N)N)=N\NC(N)=S, which T/C [4] is on record?
Its T/C is 100 % of control.

What about the T/C [5] of the same compound?
The T/C was 100 % of control.

And the T/C [6]?
Its T/C is 100 % of control.

Which T/C [11] does the source give for COC(=O)C1C(O)CCC2CN3CCc4c([nH]c5ccccc45)C3CC21 (centres undefined) here?
The T/C was 100 % of control.

And the T/C [15]?
The T/C was 100 % of control.

And the T/C [12]?
The T/C was 100 % of control.

What about the T/C [8] of the same compound?
The T/C was 96 % of control.

Which T/C (dose: 0.78 mg/kg/injection, vehicle: saline) does the source give for O=c1cccc2n1CC1CNC[C@H]2C1 here?
The T/C was 100 % of control.

What about the T/C (dose: 1.56 mg/kg/injection, vehicle: saline) of the same compound?
Its T/C is 100 % of control.

What about the T/C (dose: 3.13 mg/kg/injection, vehicle: saline) of the same compound?
The T/C was 103 % of control.

And the T/C (dose: 6.25 mg/kg/injection, vehicle: saline)?
Its T/C is 100 % of control.

Which results are given for CC(=O)OC(C)(C)/C=C/C(=O)[C@](C)(O)[C@H]1[C@H](O)C[C@@]2(C)[C@@H]3CC=C4[C@@H](C[C@H](O)C(=O)C4(C)C)[C@]3(C)C(=O)C[C@]12C?
T/C (dose: 0.16 mg/kg/injection, vehicle: saline): 96 % of control; T/C (dose: 0.25 mg/kg/injection, vehicle: saline): 100 % of control; T/C (dose: 0.38 mg/kg/injection, vehicle: saline): 103 % of control

O=C(NCCCCC(NC(=O)c1ccccc1)C(=O)NCCCCCCNCCCCCCNC(=O)C(CCCCNC(=O)c1ccccc1)NC(=O)c1ccccc1)c1ccccc1 (centres undefined) was tested. Which T/C [3] did it give?
The T/C was 100 % of control.

And the T/C [4]?
The T/C was 110 % of control.

What about the T/C [5] of the same compound?
The T/C was 100 % of control.

And the T/C [6]?
The T/C was 106 % of control.
